# Reference: patent publication US20230190852A1, “COMPOSITIONS AND METHODS FOR JOINT HEALTH” (Unigen, Inc., priority 2013, published 2023)
# “And” between values parts separate entries of the source, which are not always exact repeats. Equal entries are not always repeated.
# What was measured:
# Assay type in all cases: in vivo
# CD-1 mice [1] = experiment: Visceral pain perception model (Writhing's test, acetic acid)
# Method: Mice (n=6 per group) were habituated under an inverted Plexiglas observation chamber for 30 minutes to allow them to acclimatize to their surroundings. Animals were orally administered treatment articles at different doses, […], or vehicle control (propylene glycol) 30 minutes before intraperitoneal administration of freshly made acetic acid solution (0.7% in 0.9% NaCl) at 10 ml/kg using a 26 gauge needle. The experiment was carried out at room temperature. After the challenge, each animal was placed back into its own individual section of the observation chamber and the number of constrictions of the abdominal muscle together with stretching was counted cumulatively over a period of 30 minutes (Collier et al., Br. J. Pharmacol. Chemother. 32:295, 1968).
# Wistar rats = experiment: Adjuvant-induced arthritis (AIA) rat model (paw edema, allodynia, ankle width); set-up: Paw edema, Mean ± SD: unit not given beside the values; Allodynia, Mean ± SD / Ankle Width, Mean ± SD: unit not given here; conditions: for reduction in ankle diameter vs. vehicle control / reduction in pain sensitivity (allodynia) / reduction in paw edema vs. vehicle control / Allodynia, Mean ± SD / Paw edema, Mean ± SD: 100 mg/kg oral daily; for Ankle Width, Mean ± SD: AIA rats, oral 100 mg/kg; for Allodynia, Mean ± SD / Paw edema, Mean ± SD: AIA model, Wistar rats
# Method: This adjuvant-induced rat arthritis model was used to evaluate the anti-pain and anti-inflammatory activity of a Curcuma:Morus (C:M) composition. Purpose bred female Wistar rats weighing 150-175 g (Charles River Laboratories, Inc., Wilmington, Mass.) were acclimated upon arrival for a week before being assigned randomly to their respective group. The rats were provided with fresh water and rodent chow diet ad libitum while being housed in a temperature controlled room (22.2° C.) on a 12 hour light-dark cycle. Treatment was started a day before antigen inoculation, wherein animals (n=9) were orally gavaged with a positive control ibuprofen, a 1C:1M test article, or a vehicle only control (propylene glycol). On the next day, arthritis was induced by sensitizing rats with an injection of complete Freund's adjuvant containing 5 mg/ml (w/v) suspension of heat killed Mycobacterium tuberculosis in liquid paraffin into the subplantar region of right hind paw of sedated rats (Currey, Ann. Rheum. Dis. 29:314, 1970; Whitehouse et al., Can. Med. Assoc. J. 129:249, 1983) an hour after a second treatment dose.
# (§1) Treatment with the controls or test articles was started a day before intraplantar injection of complete adjuvant into the right hind paw. The anti-inflammatory effect of a C:M composition was reflected in the measured change in paw edema. Rats (n=9) were treated orally with 1C:1M composition (200 mg/kg, 100 mg/kg or 50 mg/kg), ibuprofen (100 mg/kg) or vehicle for 14 days. Data are expressed as mean±SD and p-values were calculated against vehicle. Paw edema was measured with the use of a plethysmometer (IITC, Woodland Hills, Calif.; Model 520) on day 1 (before antigen), day 3, 5, 7, 9 and 13 after antigen injection.
# Treatment with the controls or test articles was started a day before intraplantar injection of complete adjuvant into the right hind paw. The anti-pain effect of a C:M composition was reflected by allodynia (induced pain). Rats (n=9) were treated orally with 1C:1M composition (200 mg/kg, 100 mg/kg or 50 mg/kg), ibuprofen (100 mg/kg) or vehicle for 14 days. Data are expressed as mean±SD and p-values were calculated against vehicle. Allodynia was evaluated by responsiveness to pressure applied perpendicular to the central plantar surface of the right hind paw using the Randall—Selitto test (Randall and Selitto, Arch. Intl Pharmacodyn Therap. 133:233, 1957). A positive response to the applied mechanical pressure, noted by sharp withdrawal of the paw, was recorded automatically by an electronic Von Frey Anesthesiometer (2390 series Electrovonfrey, IITC, Woodland Hills, Calif.) (Vivancos et al., 2004).
# as §1, with “ankle diameter.” for “paw edema.”, “vehicle Ankle diameter” for “vehicle. Paw edema”, “using” for “with the use of”, “Pocket Thickness Gage (7309, Mitutoyo corp. Japan)” for “plethysmometer (IITC, Woodland Hills, Calif.; Model 520)”
# CD-1 mice [2] = experiment: Nociceptive behavior model elicited by intraplantar injection of formalin; conditions: 200 mg/kg oral
# Method: Mice (n=6 per group) were habituated under inverted Plexiglas observation chamber for 30 minutes to allow them to acclimatize to their surroundings. […] Mice were immediately transferred to their individual observational chamber. […] Mirrors positioned behind the chambers enabled observation of the right hind paw when it was obscured from direct view. […] These behavioral reactions observed for the first five minutes are due to direct action of the irritant on sensory nerve endings where is believed to be as a result of inflammation in the later phase. […] Mice were treated with curcumin (50, 100, 150 or 200 mg/kg) or ibuprofen (200 mg/kg) orally half an hour before intraplantar formalin injection.
# [3] = 200 mg/kg oral, vs vehicle, CD-1 mice
compound,measurement,setting,value
CC(C)Cc1ccc(C(C)C(=O)O)cc1 (centres unmarked) [Ibuprofen],Max % inhibition of visceral pain sensitivity,CD-1 mice [1]; 100 mg/kg oral,67.6%
same,Visceral Pain Sensitivity % ↓ vs. Vehicle,CD-1 mice [1]; 100 mg/kg oral,56.1%
same,% reduction of pain behavior,CD-1 mice [1]; 200 mg/kg oral,67.4% and 46.0%
same,"number of abdominal constrictions / behavioral responses in 30 minutes, Mean ± SD",CD-1 mice [1]; 200 mg/kg oral,25.3±14.3 and 41.8±12.6
same,"Visceral pain sensitivity, behavioral responses, Mean ± SD","CD-1 mice [1]; 200 mg/kg oral 30 min before acetic acid i.p., observed 30 minutes, CD-1 mice",34.5 ± 12.7 and 25.3 ± 14.3 and 41.8 ± 12.6
same,"Visceral pain sensitivity, % Inhibition",CD-1 mice [1]; [3],67.4% and 46.0%
same,"Visceral pain sensitivity, % inhibition vs vehicle",CD-1 mice [1]; [3],64.1%
same,reduction in ankle diameter vs. vehicle control,Wistar rats; day 3,37.2%
same,reduction in pain sensitivity (allodynia),Wistar rats; day 3,31.3%
same,reduction in paw edema vs. vehicle control,Wistar rats; day 3,28.8%
same,reduction in ankle diameter vs. vehicle control,Wistar rats; day 5,34.8%
same,reduction in pain sensitivity (allodynia),Wistar rats; day 5,39.5%
same,reduction in paw edema vs. vehicle control,Wistar rats; day 5,21.1%
same,reduction in ankle diameter vs. vehicle control,Wistar rats; day 7,36.8%
same,reduction in pain sensitivity (allodynia),Wistar rats; day 7,48.8%
same,reduction in paw edema vs. vehicle control,Wistar rats; day 7,19.4%
same,reduction in ankle diameter vs. vehicle control,Wistar rats; day 9,33.5%
same,reduction in pain sensitivity (allodynia),Wistar rats; day 9,52.5%
same,reduction in paw edema vs. vehicle control,Wistar rats; day 9,24.3%
same,reduction in ankle diameter vs. vehicle control,Wistar rats; day 13,44.2%
same,reduction in pain sensitivity (allodynia),Wistar rats; day 13,52.5%
same,reduction in paw edema vs. vehicle control,Wistar rats; day 13,32.7%
same,"Ankle Width, Mean ± SD",Wistar rats; Day 3,1.1 ± 0.1
same,"Ankle Width, Mean ± SD",Wistar rats; Day 5,1.0 ± 0.1
same,"Ankle Width, Mean ± SD",Wistar rats; Day 7,1.2 ± 0.1
same,"Ankle Width, Mean ± SD",Wistar rats; Day 9,1.0 ± 0.2
same,"Ankle Width, Mean ± SD",Wistar rats; Day 13,0.8 ± 0.1
same,"Allodynia, Mean ± SD",Wistar rats; Day 3,67.4 ± 5.6
same,"Paw edema, Mean ± SD",Wistar rats; Day 3,3.5 ± 0.7
same,"Allodynia, Mean ± SD",Wistar rats; Day 5,54.8 ± 2.6
same,"Paw edema, Mean ± SD",Wistar rats; Day 5,3.1 ± 0.8
same,"Allodynia, Mean ± SD",Wistar rats; Day 7,43.0 ± 4.6
same,"Paw edema, Mean ± SD",Wistar rats; Day 7,3.1 ± 0.7
same,"Allodynia, Mean ± SD",Wistar rats; Day 9,38.8 ± 2.3
same,"Paw edema, Mean ± SD",Wistar rats; Day 9,2.7 ± 0.6
same,"Allodynia, Mean ± SD",Wistar rats; Day 13,32.9 ± 2.6
same,"Paw edema, Mean ± SD",Wistar rats; Day 13,2.1 ± 0.58
same,Pain Sensitivity 20-40 Minutes after Formalin Injection % ↓ vs. Vehicle,CD-1 mice [2],63.5%
